# According to patent US20110144331A1, “Cinnoline Compounds for the Treatment of Anxiety, Cognitive and Mood Disorders” (AstraZeneca AB, priority 2005, published 2011):
# Tests used:
# [1] = biological target: T1, human α1β2γ2 GABAA receptor (Homo sapiens, UniProt P14867+P18507); test: Two-electrode voltage-clamp in Xenopus oocytes, potentiation of GABA EC10 current, GABAA1; type: cell-based; conditions: percentage potentiation of GABA EC10 current divided by that of diazepam control
# T1 construct: expressed in transfected cells; host or cells: Xenopus laevis oocytes injected with capped cRNA
# T1 sequence (P14867 28-456): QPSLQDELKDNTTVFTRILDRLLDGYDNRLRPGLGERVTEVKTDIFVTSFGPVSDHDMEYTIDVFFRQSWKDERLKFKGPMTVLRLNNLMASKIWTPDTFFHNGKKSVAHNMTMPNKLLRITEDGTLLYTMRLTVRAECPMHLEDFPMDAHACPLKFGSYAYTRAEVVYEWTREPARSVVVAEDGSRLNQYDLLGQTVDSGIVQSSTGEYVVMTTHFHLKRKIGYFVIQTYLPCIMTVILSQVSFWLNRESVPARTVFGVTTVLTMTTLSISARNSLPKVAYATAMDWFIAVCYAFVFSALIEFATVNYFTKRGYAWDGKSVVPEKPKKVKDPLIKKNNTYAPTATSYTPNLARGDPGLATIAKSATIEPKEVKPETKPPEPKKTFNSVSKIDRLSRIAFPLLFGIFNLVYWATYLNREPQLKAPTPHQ
# T1 sequence (P47870 25-512 partner limits assumed): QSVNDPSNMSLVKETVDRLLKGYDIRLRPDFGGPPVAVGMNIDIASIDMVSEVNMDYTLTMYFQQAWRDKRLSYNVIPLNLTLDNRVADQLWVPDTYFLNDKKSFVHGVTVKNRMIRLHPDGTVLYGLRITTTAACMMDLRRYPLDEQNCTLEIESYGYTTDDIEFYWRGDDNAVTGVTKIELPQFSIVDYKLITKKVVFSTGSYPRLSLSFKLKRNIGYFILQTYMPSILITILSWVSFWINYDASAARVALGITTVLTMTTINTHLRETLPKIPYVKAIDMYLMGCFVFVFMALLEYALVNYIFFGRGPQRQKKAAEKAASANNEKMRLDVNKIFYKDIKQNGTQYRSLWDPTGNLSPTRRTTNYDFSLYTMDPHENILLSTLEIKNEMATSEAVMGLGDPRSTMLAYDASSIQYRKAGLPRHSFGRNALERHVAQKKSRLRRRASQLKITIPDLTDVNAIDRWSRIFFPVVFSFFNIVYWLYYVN
# T1 sequence (P18507 40-475): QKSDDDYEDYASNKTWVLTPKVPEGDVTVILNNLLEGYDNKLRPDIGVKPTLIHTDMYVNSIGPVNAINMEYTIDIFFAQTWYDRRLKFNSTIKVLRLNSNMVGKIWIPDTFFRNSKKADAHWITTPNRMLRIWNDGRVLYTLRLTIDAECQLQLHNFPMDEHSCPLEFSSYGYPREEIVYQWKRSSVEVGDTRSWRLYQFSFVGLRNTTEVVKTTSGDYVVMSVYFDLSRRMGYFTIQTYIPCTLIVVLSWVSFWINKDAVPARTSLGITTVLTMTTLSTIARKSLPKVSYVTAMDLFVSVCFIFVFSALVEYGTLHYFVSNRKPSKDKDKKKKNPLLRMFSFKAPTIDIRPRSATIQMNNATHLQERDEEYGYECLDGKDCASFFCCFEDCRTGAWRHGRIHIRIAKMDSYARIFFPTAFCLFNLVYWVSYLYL
# Procedure: (§1) GABAA receptors were heterologously expressed in Xenopus oocytes by injecting cRNA corresponding to human α1, α2, α3, α5, β2, β3 and γ2 subunits of the GABAA receptor genes. The specific subunit combinations (subtypes) were as follows: α1β2γ2, α2β3γ2, α3β3γ2, and α5β3γ2. The EC10 of GABA was approximated for each cell. Stability of GABA-mediated (EC10) current was established. Modulatory effect of test compound was determined and compared across subtypes. […] Thus, the assay can characterize modulatory effects and determine subtype selectivity of test compounds on major subtypes of GABAA receptors.
# (§2) Surgically removed ovarian lobes were teased out in OR2 solution (82 NaCl, 2.5 KCl, 5 HEPES, 1.5 NaH2PO4, 1 MgCl2, 0.1 EDTA, in mM, pH 7.4). The oocytes were defolliculated by incubation in 25 mL OR2 containing 0.2% collagenase 1A (SIGMA) two times for about 60 minutes on a platform shaker and stored in Leibovitz's L-15 medium. Oocytes were injected the following day in 0.5× Leibovitz's L-15 medium containing […] gentamycin, 10 units/ml penicillin, and […] streptomycin.
# (§3) Capped cRNAs from the linearized vectors containing human α1, β2 and γ2 subunits of the GABAA receptor genes were mixed in ratio of 1:1:30. Oocytes were injected with 25-50 nL of mixed RNA with an appx molar ratio for α1, β2, and γ2 as 1:1:10. Oocyte recordings were done 2-10 days after injection. The same methods apply to subtypes derived from α2β2γ2, α3β3γ2, and α5β3γ2, except for 1:1:1 ratio was used for α, β, and γ subunits.
# (§4) All measurements were done in a medium containing ND-96 (96 NaCl, 2 KCl, 1.8 CaCl2.2H2O, 1 MgCl2.6H2O, 5 HEPES, in mM, pH 7.5). Two-electrode voltage-clamp recording was carried out using OpusXpress amplifier (Axon Instruments, Foster City, Calif.), which allows simultaneous recording from 8 oocytes. Oocytes were impaled with two electrodes of 1-2 MΩ tip resistance when filled with 3M KCl. Recordings were begun when membrane potential became stable at potentials negative to −50-−60 mV. Membrane potential was held at −60 mV. […] The concentration of GABA corresponded to the EC10 value calculated for each oocyte. The modulator pulses started 30 s before the GABA pulse so as to allow preincubation with the modulator. A set of 3 pulses with just GABA without modulator was given prior to the modulator-containing pulses to define the baseline GABA response. Two oocytes per each experiment were dedicated to observe the effect of diazepam on GABA response to ensure the presence of γ2 subunit in the GABAA pentameric complex, which imparts diazepam sensitivity to the complex.
# (§5) Current amplitude (i) was measured from baseline to peak using Clampfit (Axon Inst., Foster City, Calif.). Potentiation was calculated as percent change from the baseline GABA current flux 100×(imod/icontrol)−1) where imod=current mediated by modulator+GABA and icontrol=current mediated by GABA alone. […] Similarly, a value of −50% potentiation means the presence of modulator caused a 50% decrease in the control current. Various other data shown here were fitted and plotted using GraphPad Prism (GraphPad Software, Inc. San Diego, Calif.). The percentage potentiation was converted to relative potentiation by dividing it with percentage potentiation value obtained from the same assay with diazepam as a control.
# [2] = biological target: T2, human α2β3γ2 GABAA receptor (Homo sapiens, UniProt P18507+P47869); test: Two-electrode voltage-clamp in Xenopus oocytes, potentiation of GABA EC10 current, GABAA2; type: cell-based; conditions: percentage potentiation of GABA EC10 current divided by that of diazepam control
# T2 construct: expressed in transfected cells; host or cells: Xenopus laevis oocytes injected with capped cRNA (α:β:γ 1:1:1)
# T2 sequence (P47869 29-451): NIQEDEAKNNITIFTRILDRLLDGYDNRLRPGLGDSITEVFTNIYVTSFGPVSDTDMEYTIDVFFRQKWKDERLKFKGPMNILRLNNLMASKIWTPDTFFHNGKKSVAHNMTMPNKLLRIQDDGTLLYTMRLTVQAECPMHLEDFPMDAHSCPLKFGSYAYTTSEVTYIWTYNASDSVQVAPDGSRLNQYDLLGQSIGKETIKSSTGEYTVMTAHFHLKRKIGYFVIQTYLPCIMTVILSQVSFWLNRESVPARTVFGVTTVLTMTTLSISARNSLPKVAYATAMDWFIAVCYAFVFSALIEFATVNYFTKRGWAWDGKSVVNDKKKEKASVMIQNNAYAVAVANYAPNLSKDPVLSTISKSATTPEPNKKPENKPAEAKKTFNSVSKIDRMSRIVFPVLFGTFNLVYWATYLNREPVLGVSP
# T2 sequence (P18507 40-475): as the sequence (P18507 40-475) above
# T2 sequence (P28472 26-473 partner): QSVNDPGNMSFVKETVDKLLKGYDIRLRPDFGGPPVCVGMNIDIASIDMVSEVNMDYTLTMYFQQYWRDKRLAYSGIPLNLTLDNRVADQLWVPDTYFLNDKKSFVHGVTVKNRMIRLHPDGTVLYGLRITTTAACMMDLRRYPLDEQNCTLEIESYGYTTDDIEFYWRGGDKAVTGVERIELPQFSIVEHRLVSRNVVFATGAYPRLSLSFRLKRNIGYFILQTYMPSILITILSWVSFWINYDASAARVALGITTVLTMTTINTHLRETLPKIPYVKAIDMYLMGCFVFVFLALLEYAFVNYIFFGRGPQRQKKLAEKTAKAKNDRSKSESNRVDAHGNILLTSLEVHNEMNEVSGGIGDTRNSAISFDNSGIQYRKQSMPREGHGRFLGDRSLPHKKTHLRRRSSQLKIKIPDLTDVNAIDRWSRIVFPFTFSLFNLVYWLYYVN
# Procedure: as §1, §2, §3, §4, §5
SMILES,Relative Potentiation for GABAA1 [1],Relative Potentiation for GABAA2 [2]
CCCNC(=O)c1nnc2c(-c3ccc(OC)nc3OC)cccc2c1N,0.17,0.25
CCCNC(=O)c1nnc2c(-c3cc(F)ccc3C)c(F)ccc2c1N,0.032,0.12
CCCNC(=O)c1nnc2c(-c3ccc(F)c(F)c3)cccc2c1N,−0.14,0.12
CCCNC(=O)c1nnc2c(-c3ccc(OC)c(F)c3)c(F)ccc2c1N,0.1,0.16
CCCNC(=O)c1nnc2c(-c3cccc(F)c3F)cccc2c1N,−0.11,0.17
CCCNC(=O)c1nnc2c(-c3ccc4[nH]ccc4c3)cccc2c1N,0.15,0.16
CCCNC(=O)c1nnc2c(-c3cnc(OC)nc3OC)c(Cl)ccc2c1N,0.19,0.29
CCCNC(=O)c1nnc2c(-c3cccc(OC)c3F)cccc2c1N,0.045,0.26
COc1ccc(F)cc1-c1cccc2c(N)c(C(=O)NC3CC3)nnc12,−0.028,0.357
CCNC(=O)c1nnc2c(-c3cnccc3OC)cccc2c1N,−0.02,0.28
CCCNC(=O)c1nnc2c(-c3cnccc3C)cccc2c1N,0.083,0.11
CCCNC(=O)c1nnc2c(-c3cccc(F)c3OC)cccc2c1N,0.11,0.11
CCCNC(=O)c1nnc2c(-c3cc(OC)ccc3C)cccc2c1N,0.1,0.22
CCCNC(=O)c1nnc2c(-c3cccc(C)c3C)c(F)ccc2c1N,0.11,0.13
CCCNC(=O)c1nnc2c(-c3cc(Cl)cc(Cl)c3)cccc2c1N,0.28,0.48
CCCNC(=O)c1nnc2c(-c3ccccn3)cccc2c1N,0.027,−0.032
CCCNC(=O)c1nnc2c(-c3cc(OC)ccc3Cl)c(F)ccc2c1N,0.14,0.19
COc1cccc(F)c1-c1cccc2c(N)c(C(=O)NC3CCC3)nnc12,0.0017,0.12
COc1ccncc1-c1cccc2c(N)c(C(=O)NC3CC3)nnc12,0.077,0.337
CCCNC(=O)c1nnc2c(-c3ccc(F)cc3OC)c(F)ccc2c1N,−0.028,0.18
CNC(=O)c1nnc2c(-c3cc(C)ccc3OC)cccc2c1N,0.19,0.43
Cc1ccc(-c2cccc3c(N)c(C(=O)NC4CC4)nnc23)cn1,−0.166,0.074
CCCNC(=O)c1nnc2c(-c3cc(OC)c(OC)c(OC)c3)cccc2c1N,0.4,0.67
CCCNC(=O)c1nnc2c(-c3cnccn3)cccc2c1N,−0.067,−0.01
CCCNC(=O)c1nnc2c(-c3cc(F)ccc3C)cccc2c1N,0.02,0.22
CCCNC(=O)c1nnc2c(-c3ccc(OC)cc3)cccc2c1N,−0.11,0.06
CCCNC(=O)c1nnc2c(-c3ccc4ccccc4c3)cccc2c1N [drawing 381],0.22,0.09

SMILES,Relative Potentiation for GABAA1 [1],Relative Potentiation for GABAA2 [2]
CCCNC(=O)c1nnc2c(-c3cc(C(F)(F)F)cc(C(F)(F)F)c3)cccc2c1N,0.44,0.13
CCCNC(=O)c1nnc2c(-c3ccc(C)c(C)c3)cccc2c1N,0.23,0.35
CCCNC(=O)c1nnc2c(-c3cncc(C(=O)N4CCC4)c3)cccc2c1N,−0.11,−0.033
CCCNC(=O)c1nnc2c(-c3cnc(OC)c(F)c3)cccc2c1N,−0.012,0.14
COc1cccc(F)c1-c1cccc2c(N)c(C(=O)NC3CC3)nnc12,−0.048,0.16
CCCNC(=O)c1nnc2c(-c3ccc(Cl)cc3)c(F)ccc2c1N,0.02,0.19
CCCNC(=O)c1nnc2c(-c3cccc(C(=O)O)c3)cccc2c1N,−0.038,0.08
CCCCNC(=O)c1nnc2c(-c3cnc(OC)nc3OC)cccc2c1N,0.16,0.45
COc1ccc(-c2cccc3c(N)c(C(=O)NC4CCC4)nnc23)c(OC)c1,0.091,0.243
CCCNC(=O)c1nnc2c(-c3ccc(F)cc3F)cccc2c1N,−0.088,0.12
CCCNC(=O)c1nnc2c(-c3ccc(C)nc3)cccc2c1N,−0.16,0.14
CCCNC(=O)c1nnc2c(-c3cc(Cl)ccc3Cl)cccc2c1N,0.12,0.21
CCCNC(=O)c1nnc2c(-c3ccc(C)cc3)cccc2c1N,0.013,0.11
CCCNC(=O)c1nnc2c(-c3ccc(OC)cc3OC)cccc2c1N,0.18,0.15
CCCNC(=O)c1nnc2c(-c3cccc(OC)c3F)c(F)ccc2c1N,0.05,0.23
CCCNC(=O)c1nnc2c(-c3cc(F)ccc3F)cccc2c1N,−0.078,0.29
CCCNC(=O)c1nnc2c(-c3cc(C(F)(F)F)ccc3F)cccc2c1N,0.41,0.59
CCCNC(=O)c1nnc2c(-c3ccc(OC)cc3C(F)(F)F)cccc2c1N,0.12,0.16
CCCNC(=O)c1nnc2c(-c3cccc(N(C)C)c3)cccc2c1N,0.17,0.19
CCCNC(=O)c1nnc2c(-c3cccnc3OC)cccc2c1N,0.2,0.097
CCCNC(=O)c1nnc2c(-c3ccccc3C(F)(F)F)cccc2c1N,0.12,0.063
CCCNC(=O)c1nnc2c(-c3cncc(OC)c3)cccc2c1N,0.07,0.34
CCCNC(=O)c1nnc2c(-c3cccnc3)cccc2c1N,−0.11,0.054
CCCNC(=O)c1nnc2c(-c3ccc(OC)nc3)cccc2c1N,−0.08,0.16
CCNC(=O)c1nnc2c(-c3cnc(OC)nc3OC)cccc2c1N,0.005,0.35
CCCNC(=O)c1nnc2c(-c3ccc(C)nc3F)cccc2c1N,0.053,0.27
CCCNC(=O)c1nnc2c(-c3cccc(S(C)(=O)=O)c3)cccc2c1N,0.34,0.26
